Results reported in US7763602B2, “Pyrrole derivatives as antimycobacterial compounds” (priority 2002, dated 2010).
Values after ≈ are worked out from the molar mass of the structure shown. Like-named read-outs stand apart in the source and are kept apart here.

Tests used:
[1] = system: M. tuberculosis clinical isolates, resistant; assay: microbe, parasite or virus in culture; format: cell-based, Mycobacterium tuberculosis; conditions: for MIC: Mycobacterium tuberculosis; for MIC (μg/ml) against Clinical isolates Resistant: Table I, agar dilution
[2] = system: M. tuberculosis (Resistant strain); format: in vivo, mice; conditions: Table V; for Mean Log10 No. of CFU Lung / Mean Log10 No. of CFU Spleen: 5 day/week for 4 week, treated 01 day post-infection; for Mean Log10 No. of reduction Lung / Mean Log10 No. of reduction Spleen: difference from early controls
[3] = read-out: MIC (μg/ml) M. tuberculosis Resistant (n = 26)
[4] = read-out: MIC (μg/ml) against Clinical isolates Resistant

## Cc1c(CN2CCN(c3cccc(C(F)(F)F)c3)CC2)cc(-c2ccc(Cl)cc2)n1-c1ccc(Cl)cc1 [Compound No. 3, 1-{[1,5-bis(4-chlorophenyl)-2-methylpyrrol-3-yl]methyl}-4-(3-trifluoromethylphenyl)piperazine]
[1]; [3]
  MIC: 0.25 to 0.5 µg/mL (≈ 0.459 to 0.918 µM)
[1]; [4]
  MIC: 0.25 to 0.5 µg/mL (≈ 0.459 to 0.918 µM)
[2]; 12.5 mg/kg
  Mean Log10 No. of CFU Lung: 2.98 ± 0.5
  Mean Log10 No. of CFU Spleen: 2.91 ± 0.4
  Mean Log10 No. of reduction Lung: 1.49
  Mean Log10 No. of reduction Spleen: 1.72
[2]; 25 mg/kg
  Mean Log10 No. of CFU Lung: 2.3 ± 0.17
  Mean Log10 No. of CFU Spleen: 2.2 ± 0.31
  Mean Log10 No. of reduction Lung: 2.17
  Mean Log10 No. of reduction Spleen: 2.43
[2]; 50 mg/kg
  Mean Log10 No. of CFU Lung: 1.99 ± 0.3
  Mean Log10 No. of CFU Spleen: 1.97 ± 0.4
  Mean Log10 No. of reduction Lung: 2.48
  Mean Log10 No. of reduction Spleen: 2.66

## Cc1c(CN2CCN(c3cccc(C(F)(F)F)c3)CC2)cc(-c2ccc(Cl)cc2)n1-c1ccc(F)cc1F [compound 46, 1-{[1-(2,4-difluorophenyl)-5-(4-chlorophenyl)-2-methylpyrrol-3-yl]methyl}-4-(3-trifluoromethylphenyl)piperazine]
[1]; [4]
  MIC: 4 to 16 µg/mL (≈ 7.33 to 29.3 µM)

## Cc1c(CN2CCN(c3ccccn3)CC2)cc(-c2ccc(Cl)cc2)n1-c1cccc2ccccc12 [compound 61, 1-{[5-(4-chlorophenyl)-2-methyl-1-naphthylpyrrol-3-yl]methyl}-4-(2-pyridyl) piperazine]
[1]
  MIC (μg/ml) against Clinical isolates Resistant: 4.0 to 8.0 µg/mL

## Cc1c(CN2CCN(C)CC2)cc(-c2ccccc2)n1NC(=O)c1ccncc1 [compound 16, N-{2-methyl-3-[(4-methylpiperazinyl)methyl]-5-phenylpyrrolyl}-4-pyridylcarboxamide]
[1]
  MIC (μg/ml) against Clinical isolates Resistant: 4.0 to 16.0 µg/mL

## CCC(CO)n1c(C)c(CN2CCSCC2)c(CO)c1-c1ccccc1 (stereo not drawn) [compound 90, 2-[3-(hydroxymethyl)-5-methyl-2-phenyl-4-(1,4-thiazaperhydroin-4-ylmethyl)-pyrrolyl]butan-1-ol]
[1]
  MIC (μg/ml) against Clinical isolates Resistant: >16.0 µg/mL

## Cc1cc(CN2CCN(Cc3ccc4c(c3)OCO4)CC2)c(-c2ccccc2)n1NC(=O)c1cnccn1 [compound 35, N-(3-{[4-(2H-benzo[3,4-d]1,3-dioxolan-5-ylmethyl)piperazinyl]methyl}-5-methyl-2-phenylpyrrolyl)pyrazin-2-ylcarboxamide]
[1]
  MIC (μg/ml) against Clinical isolates Resistant: >16.0 µg/mL

## Cc1c(CN2CCN(C(=O)c3ccco3)CC2)cc(-c2ccc(Cl)cc2)n1-c1ccc(Cl)cc1 [compound 7, 4-{[1,5-bis(4-chlorophenyl)-2-methylpyrrol-3-yl]methyl}piperazinyl-2-furyl-ketone]
[1]
  MIC (μg/ml) against Clinical isolates Resistant: 2.0 to 4.0 µg/mL

## Cc1c(CN2CCN(c3ccc(F)cc3)CC2)cc(-c2ccccc2)n1NC(=O)c1ccncc1 [compound 11, N-(3-{[4-(4-fluorophenyl)piperazinyl]methyl}-2-methyl-5-phenylpyrrolyl)-4-pyridylcarboxamide]
[1]
  MIC (μg/ml) against Clinical isolates Resistant: 0.5 to 2.0 µg/mL

## Cc1c(CN2CCCC2)cc(-c2ccccc2)n1NC(=O)c1ccncc1 [compound 19, N-[2-methyl-5-phenyl-3-(pyrrolidinylmethyl)pyrrolyl]-4-pyridylcarboxamide]
[1]
  MIC (μg/ml) against Clinical isolates Resistant: >16.0 µg/mL

## Cc1c(CN2CCSCC2)cc(-c2ccccc2)n1NC(=O)c1ccncc1 [compound 21, N-[2-methyl-5-phenyl-3-(1,4-thiazaperhydroin-4-ylmethyl)pyrrolyl]-4-pyridyl carboxamide]
[1]
  MIC (μg/ml) against Clinical isolates Resistant: 1.0 to 4.0 µg/mL

## Cc1ccc(Cl)cc1N1CCN(Cc2cc(-c3ccc(Cl)cc3)n(-c3ccc(Cl)cc3)c2C)CC1 [compound 10, 1-{[1,5-bis(4-chlorophenyl)-2-methylpyrrol-3-yl]methyl}-4-(5-chloro-2-methylphenyl) piperazine]
[1]; [4]
  MIC: 1 to 4 µg/mL (≈ 1.91 to 7.62 µM)

## Cc1c(CN2CCN(c3ccc(F)cc3)CC2)cc(-c2ccc(Cl)cc2)n1-c1ccc(F)cc1F [compound 44, 1-{[1-(2,4-difluorophenyl)-5-(4-chlorophenyl)-2-methylpyrrol-3-yl]methyl}-4-(4-fluorophenyl)piperazine]
[1]; [4]
  MIC: 2 to 4 µg/mL (≈ 4.03 to 8.06 µM)

## COc1ccccc1N1CCN(Cc2cc(C)n(-c3ccc(F)cc3F)c2-c2ccccc2)CC1 [compound 56, 1-{[1-(2,4-difluorophenyl)-5-methyl-2-phenylpyrrol-3-yl]methyl}-4-(2-methoxyphenyl) piperazine]
[1]; [4]
  MIC: 8 to 16 µg/mL (≈ 16.9 to 33.8 µM)

## NNC(=O)c1ccncc1 [Isoniazid, reference compound]
[2]; 12.5 mg/kg
  Mean Log10 No. of CFU Lung: 5.8 ± 0.4
  Mean Log10 No. of CFU Spleen: 5.79 ± 0.4
  Mean Log10 No. of reduction Lung: −1.33
  Mean Log10 No. of reduction Spleen: −1.16
[2]; 25 mg/kg
  Mean Log10 No. of CFU Lung: 5.12 ± 0.6
  Mean Log10 No. of CFU Spleen: 5.43 ± 0.5
  Mean Log10 No. of reduction Lung: −0.65
  Mean Log10 No. of reduction Spleen: −0.8
[2]; 50 mg/kg
  Mean Log10 No. of CFU Lung: 4.43 ± 0.5
  Mean Log10 No. of CFU Spleen: 4.7 ± 0.31
  Mean Log10 No. of reduction Lung: 0.04
  Mean Log10 No. of reduction Spleen: −0.07

## Cc1c(CN2CCN(Cc3ccc4c(c3)OCO4)CC2)cc(-c2ccc(Cl)cc2)n1-c1ccc(F)cc1F [compound 50, 5-[(4-{[1-(2,4-difluorophenyl)-5-(4-chlorophenyl)-2-methylpyrrol-3-yl]-methyl}-piperazinyl)methyl]-2H-benzo[d]1,3-dioxolane]
[1]
  MIC (μg/ml) against Clinical isolates Resistant: 4.0 to 16.0 µg/mL

## COc1ccccc1N1CCN(Cc2cc(-c3ccc(Cl)cc3)n(-c3ccc(Cl)cc3)c2C)CC1 [Compound No. 2, 1-{[1,5-bis(4-chlorophenyl)-2-methylpyrrol-3-yl]methyl}-4-(2-methoxyphenyl) piperazine]
[1]; [3]
  MIC: 0.25 to 1 µg/mL (≈ 0.494 to 1.97 µM)
[1]; [4]
  MIC: 0.25 to 1 µg/mL (≈ 0.494 to 1.97 µM)

## Cc1c(CN2CCS(=O)(=O)CC2)cc(-c2ccccc2)n1-c1ccccc1 [compound 88]
[1]
  MIC (μg/ml) against Clinical isolates Resistant: 2.0 to 8.0 µg/mL

## Cc1c(CN2CCN(c3cccc(C(F)(F)F)c3)CC2)cc(-c2ccccc2)n1NC(=O)c1cnccn1 [compound 27, N-(3-{[4-(3-trifluoromethylphenyl)piperazinyl]methyl}-2-methyl-5-phenylpyrrolyl)pyrazin-2-ylcarboxamide]
[1]
  MIC (μg/ml) against Clinical isolates Resistant: 8.0 µg/mL (≈ 15.4 µM)

## COc1ccccc1N1CCN(Cc2cc(-c3ccccc3)n(-c3ccc(F)cc3F)c2C)CC1 [compound 52, 1-{[1-(2,4-difluorophenyl)-2-methyl-5-phenylpyrrol-3-yl]methyl}-4-(2-methoxyphenyl)piperazine]
[1]; [4]
  MIC: 8 to 16 µg/mL (≈ 16.9 to 33.8 µM)

## Cc1c(CN2CCN(Cc3ccc4c(c3)OCO4)CC2)cc(-c2ccccc2)n1NC(=O)c1ccncc1 [compound 17, N-(3-{[4-(2H-benzo[d]1,3-dioxolan-5-ylmethyl)piperazinyl]methyl}-2-methyl-5-phenylpyrrolyl)-4-pyridylcarboxamide]
[1]
  MIC (μg/ml) against Clinical isolates Resistant: 4.0 to 8.0 µg/mL

## Cc1cc(CN2CCN(c3cccc(C(F)(F)F)c3)CC2)c(-c2ccccc2)n1-c1ccc(F)cc1F [compound 57, 1-{[1-(2,4-difluorophenyl)-5-methyl-2-phenylpyrrol-3-yl]methyl}-4-(3-trifluoromethylphenyl)piperazine]
[1]; [4]
  MIC: > 16 µg/mL

## Cc1cc(CN2CCN(c3ccc(F)cc3)CC2)c(-c2ccccc2)n1-c1ccc(F)cc1F [compound 55, 1-{[1-(2,4-difluorophenyl)-5-methyl-2-phenylpyrrol-3-yl]methyl}-4-(4-fluorophenyl) piperazine]
[1]; [4]
  MIC: > 16 µg/mL

## Cc1cc(CN2CCN(c3cccc(C(F)(F)F)c3)CC2)c(-c2ccccc2)n1NC(=O)c1cnccn1 [compound 33, N-(3-{[4-(3-trifluoromethylphenyl)piperazinyl]methyl}-5-methyl-2-phenylpyrrolyl)pyrazin-2-ylcarboxamide]
[1]
  MIC (μg/ml) against Clinical isolates Resistant: 4.0 to 8.0 µg/mL
